Data as given in ChEMBL document CHEMBL1201862, “PubChem BioAssay data set” (2004).
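Dose response: 5 concentrations. Exposure: 48 h. Format: 96-well plates. Endpoint: linear interpolation; highest concentration if not reached. Here, GI50 denotes the concentration required for 50% inhibition of growth.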 The source made the active and inactive calls. Rule as the data show it: active = GI50 up to about 1.1 µM and inactive = higher.

Columns and labels:
Assay in all cases: DTP human tumour cell line panel, 48 h
[1] = test system: SNB-75
[2] = test system: MOLT-4
[3] = test system: A498
[4] = test system: HCT-116
[5] = test system: KM12
[6] = test system: SK-MEL-28
[7] = test system: SK-MEL-2
[8] = test system: SR
[9] = test system: SF-295
[10] = test system: A549
[11] = test system: OVCAR-3
[12] = test system: SNB-19
[13] = test system: SF-268
[14] = test system: OVCAR-5
[15] = test system: HCT-15
[16] = test system: OVCAR-4
[17] = test system: NCI-H226
[18] = test system: CCRF-CEM
[19] = test system: Hs-578T

Compound	GI50 [1]	GI50 [2]	GI50 [3]	GI50 [4]	GI50 [5]	GI50 [6]	GI50 [7]	GI50 [8]	GI50 [9]	GI50 [10]	GI50 [11]	GI50 [12]	GI50 [13]	GI50 [14]	GI50 [15] [µM]	GI50 [16]	GI50 [17]	GI50 [18]	GI50 [19]
O=C(O)c1cc(O)nc(SCc2ccccc2)n1	> 100 µM (inactive)	> 100 µM (inactive)	> 100 µM (inactive)	> 100 µM (inactive)	> 100 µM (inactive)	> 100 µM (inactive)	> 100 µM (inactive)	> 100 µM (inactive)	> 100 µM (inactive)	> 100 µM (inactive)	> 100 µM (inactive)	> 100 µM (inactive)	> 100 µM (inactive)	> 100 µM (inactive)	> 100	> 100 µM (inactive)	> 100 µM (inactive)	–	–
OCC1OC(n2nc(-c3ccccc3)nc2-c2cnccn2)C(O)C1O (stereo not given)	> 100 µM (inactive)	> 100 µM (inactive)	–	> 100 µM (inactive)	> 100 µM (inactive)	> 100 µM (inactive)	–	–	> 100 µM (inactive)	> 100 µM (inactive)	> 100 µM (inactive)	> 100 µM (inactive)	> 100 µM (inactive)	> 100 µM (inactive)	> 100	> 100 µM (inactive)	–	> 100 µM (inactive)	–
CSC1(Cc2ccccn2)C(=O)Nc2cccc([N+](=O)[O-])c21 (stereo not given)	> 100 µM (inactive)	33.3 µM (inactive)	–	79.1 µM (inactive)	> 100 µM (inactive)	55.5 µM (inactive)	> 100 µM (inactive)	> 100 µM (inactive)	> 100 µM (inactive)	> 100 µM (inactive)	> 100 µM (inactive)	> 100 µM (inactive)	> 100 µM (inactive)	> 100 µM (inactive)	> 100	> 100 µM (inactive)	> 100 µM (inactive)	48 µM (inactive)	> 100 µM (inactive)
COc1cc(C=C(c2ccc(N(C)C)cc2)c2ccc(N(C)C)cc2)c2ccccc2c1OC	36.3 µM (inactive)	> 100 µM (inactive)	–	35.1 µM (inactive)	38.4 µM (inactive)	93.8 µM (inactive)	33.9 µM (inactive)	22.3 µM (inactive)	30.3 µM (inactive)	> 100 µM (inactive)	27.2 µM (inactive)	> 100 µM (inactive)	> 100 µM (inactive)	> 100 µM (inactive)	40.4	70.3 µM (inactive)	41 µM (inactive)	18.6 µM (inactive)	43.2 µM (inactive)
O=C(/C=C/c1ccc(OCc2ccccc2)cc1)NCc1ccc(C(=O)NCCc2ccccc2)cc1	> 100 µM (inactive)	–	> 100 µM (inactive)	> 100 µM (inactive)	> 100 µM (inactive)	> 100 µM (inactive)	> 100 µM (inactive)	–	> 100 µM (inactive)	> 100 µM (inactive)	> 100 µM (inactive)	> 100 µM (inactive)	> 100 µM (inactive)	> 100 µM (inactive)	> 100	> 100 µM (inactive)	> 100 µM (inactive)	11.4 µM (inactive)	> 100 µM (inactive)
O=C(Nc1ccc(N2C(=O)CSC2c2cccs2)cc1)c1ccc(N2C(=O)CSC2c2cccs2)cc1 (stereo not given)	> 100 µM (inactive)	39.5 µM (inactive)	–	> 100 µM (inactive)	> 100 µM (inactive)	> 100 µM (inactive)	> 100 µM (inactive)	–	53 µM (inactive)	37.2 µM (inactive)	> 100 µM (inactive)	49 µM (inactive)	> 100 µM (inactive)	> 100 µM (inactive)	> 100	> 100 µM (inactive)	–	44.2 µM (inactive)	> 100 µM (inactive)
O=C1CSC(c2ccccc2O)N1c1ccc(Oc2ccc(Cl)cc2)c(Cl)c1 (stereo not given)	17.6 µM (inactive)	25.9 µM (inactive)	–	15.3 µM (inactive)	17.5 µM (inactive)	19.5 µM (inactive)	24.3 µM (inactive)	14.3 µM (inactive)	16.3 µM (inactive)	18.4 µM (inactive)	18.6 µM (inactive)	22 µM (inactive)	12.9 µM (inactive)	21.6 µM (inactive)	19.5	20.7 µM (inactive)	30.8 µM (inactive)	17.6 µM (inactive)	14.9 µM (inactive)
CC1=CC(C)(C)Nc2ccc(CSc3ccccc3)cc21	24.7 µM (inactive)	–	24.1 µM (inactive)	26.4 µM (inactive)	26.2 µM (inactive)	37.8 µM (inactive)	23.4 µM (inactive)	–	20 µM (inactive)	21.1 µM (inactive)	18.7 µM (inactive)	37.7 µM (inactive)	35.3 µM (inactive)	14.9 µM (inactive)	30.9	21.1 µM (inactive)	48.4 µM (inactive)	–	38.3 µM (inactive)
Cc1ccnc(NC(=S)Nc2ccc([N+](=O)[O-])cc2)c1	44.6 µM (inactive)	> 100 µM (inactive)	–	> 100 µM (inactive)	> 100 µM (inactive)	> 100 µM (inactive)	> 100 µM (inactive)	> 100 µM (inactive)	62.8 µM (inactive)	–	–	> 100 µM (inactive)	63.5 µM (inactive)	–	> 100	> 100 µM (inactive)	> 100 µM (inactive)	> 100 µM (inactive)	24 µM (inactive)
NC(CSCc1ccc(I)cc1)C(=O)O (stereo not given)	> 100 µM (inactive)	> 100 µM (inactive)	> 100 µM (inactive)	> 100 µM (inactive)	> 100 µM (inactive)	> 100 µM (inactive)	> 100 µM (inactive)	–	> 100 µM (inactive)	> 100 µM (inactive)	> 100 µM (inactive)	> 100 µM (inactive)	> 100 µM (inactive)	> 100 µM (inactive)	> 100	> 100 µM (inactive)	> 100 µM (inactive)	> 100 µM (inactive)	80.7 µM (inactive)
CC(C)N(/C(F)=N\C(=O)Nc1ccccc1C(F)(F)F)C(C)C	> 100 µM (inactive)	> 10 µM (inactive)	–	36.6 µM (inactive)	42.5 µM (inactive)	81.5 µM (inactive)	22.8 µM (inactive)	28.5 µM (inactive)	45.6 µM (inactive)	52.1 µM (inactive)	32 µM (inactive)	49.9 µM (inactive)	89.3 µM (inactive)	> 100 µM (inactive)	34.3	–	> 100 µM (inactive)	37.9 µM (inactive)	60.3 µM (inactive)
Cc1ccc(S(=O)(=O)N/N=C2\CC3C4C=CC3C2C4)cc1 (stereo not given)	–	> 100 µM (inactive)	> 100 µM (inactive)	> 100 µM (inactive)	> 100 µM (inactive)	> 100 µM (inactive)	> 100 µM (inactive)	–	> 100 µM (inactive)	> 100 µM (inactive)	> 100 µM (inactive)	> 100 µM (inactive)	> 100 µM (inactive)	> 100 µM (inactive)	> 100	> 100 µM (inactive)	> 100 µM (inactive)	> 100 µM (inactive)	> 100 µM (inactive)
C/C=C/C(=O)N1C(=O)OC[C@@H]1c1ccccc1	12.8 µM (inactive)	25.2 µM (inactive)	26.1 µM (inactive)	19.9 µM (inactive)	14.7 µM (inactive)	21.5 µM (inactive)	19.1 µM (inactive)	–	26.7 µM (inactive)	19.1 µM (inactive)	18 µM (inactive)	20.4 µM (inactive)	20.5 µM (inactive)	17.4 µM (inactive)	23.3	23 µM (inactive)	22.2 µM (inactive)	23 µM (inactive)	24.8 µM (inactive)
COc1ccc2c(c1)N=C1CSC(c3ccccc3Cl)N1C2 (stereo not given)	9.91 µM (inactive)	0.659 µM (active)	–	3.92 µM (inactive)	4.6 µM (inactive)	17.6 µM (inactive)	15.8 µM (inactive)	0.929 µM (active)	13.3 µM (inactive)	10.4 µM (inactive)	–	19 µM (inactive)	16.4 µM (inactive)	8.97 µM (inactive)	9.68	14.1 µM (inactive)	24 µM (inactive)	–	45.2 µM (inactive)
Cc1cc(C)c(C(=O)/C(=C/c2ccccc2)c2ccccc2)c(C)c1	82.2 µM (inactive)	29 µM (inactive)	–	34.8 µM (inactive)	55.2 µM (inactive)	> 100 µM (inactive)	11.3 µM (inactive)	36.6 µM (inactive)	51.6 µM (inactive)	38.8 µM (inactive)	51.4 µM (inactive)	> 100 µM (inactive)	76.2 µM (inactive)	–	20.6	57.9 µM (inactive)	50.9 µM (inactive)	35.1 µM (inactive)	–
O=C1c2ccccc2C(O)(O)C1(O)C1(O)C(=O)c2ccccc2C1(O)O (stereo not given)	15.6 µM (inactive)	–	> 100 µM (inactive)	23.6 µM (inactive)	39.6 µM (inactive)	> 100 µM (inactive)	> 100 µM (inactive)	–	34.8 µM (inactive)	30.1 µM (inactive)	25.1 µM (inactive)	91.8 µM (inactive)	> 100 µM (inactive)	65.2 µM (inactive)	21.8	45.5 µM (inactive)	> 100 µM (inactive)	16.9 µM (inactive)	> 100 µM (inactive)
CCCCCCCCCCCCCCCC(=O)ON1C(=S)NC(C)(c2ccccc2)C1=S (stereo not given)	> 100 µM (inactive)	33.5 µM (inactive)	> 100 µM (inactive)	> 100 µM (inactive)	> 100 µM (inactive)	–	> 100 µM (inactive)	–	2.11 µM (inactive)	> 100 µM (inactive)	> 100 µM (inactive)	> 100 µM (inactive)	73.6 µM (inactive)	> 100 µM (inactive)	51.4	> 100 µM (inactive)	87.9 µM (inactive)	36.4 µM (inactive)	> 100 µM (inactive)
